Measured values: publication PMC11661381, “Covalent-fragment screening identifies selective inhibitors of multiple Staphylococcus aureus serine hydrolases important for growth and biofilm formation” (Research Square, 2024)

Legend:
recombinant FphE (rFphE) = target: T1, recombinant FphE (rFphE) (Staphylococcus aureus, UniProt Q2FDS6); test: biochemical; settings: IC50 rFphE, value in nM
T1 construct: otherwise full-length FphE (Uniprot ID Q2FDS6) and FphH (A0A0H2XJL0) proteins; His6 (3C-cleavable, pETNKI-his-3C-LIC vector) (N); made in house; E. coli is inferred from the pET28a-type vector, IPTG induction and LB/kanamycin
T1 sequence (Q2FDS6 1-276): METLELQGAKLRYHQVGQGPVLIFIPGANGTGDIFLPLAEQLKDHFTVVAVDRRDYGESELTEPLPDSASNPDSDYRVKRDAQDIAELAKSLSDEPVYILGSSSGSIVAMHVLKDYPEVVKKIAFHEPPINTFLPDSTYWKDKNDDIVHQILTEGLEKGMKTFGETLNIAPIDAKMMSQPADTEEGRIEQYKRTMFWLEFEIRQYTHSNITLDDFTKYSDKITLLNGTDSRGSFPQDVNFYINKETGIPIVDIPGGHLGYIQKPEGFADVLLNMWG
Description: Fluorogenic substrate assays were performed as previously described[9],[11],[12]. […] Turnover rates in the linear phase of the reaction (10–20 min) were calculated using GraphPad prism 10.0 software as RFU/min. Rates were normalized by subtracting background hydrolysis rates measured for each substrate in reaction buffer in the absence of protein.
For the screening, 8 μL of enzyme solution was pipetted into the assay plates containing 50 nL compound and allowed to incubate for one hour at room temperature. […] For four-point dose response plates, 2.5, 10, 25, 50 nL droplets were transferred to get […], 10, 25, 50 μM compound concentrations in the 384 well plates again using an Echo acoustic liquid handler as above. […] Calculations were done with GraphPad Prism 10.0 software. […] IC50 values were derived from the fitted curve.

[1] = Cytotoxicity assay (CellTiter-Blue); assay type: cell-based; settings: human; HEK293 cells, 48hr of incubation
[2] = test system: S. aureus biofilm formation; test: Crystal violet biofilm inhibition assay; assay type: cell-based, Staphylococcus aureus; settings: fphH or fphE transposon mutant
Description: Overnight cultures of S. aureus (wild-type, transposon mutants and complemented) strains (Table S3) grown in TSB, were subcultured on fresh TSB and grown to OD600 of 0.5. Biofilms were cultured in 96 well plates by transferring 1 μL of the culture to 200 μL of TSB plus 1% glucose with or without the inhibitors and incubated for 16 hours at 37°C without agitation. The inhibitor concentrations ranged from 1, 5, 10, 50 and 100 μM final concentration. Equal volume of DMSO was added as control. The wells were washed to remove the planktonic cells and the plates air-dried before staining with 200μL of 0.1% w/v crystal violet for 10 minutes at room temperature. The wells were washed to remove excess dye and blotted to dry. Each well was filled with 200μL of DMSO for 10 minutes at room temperature to dissolve the dye. The absorbance was measured at 590 nm using Spark multimode microplate reader (TECAN). The data represents n = 3 independent experiments and are expressed as a percentage of the uninhibited wild-type bacteria. All the data are normalized such that 100% represent untreated WT S. aureus. P values were determined using ordinary one-way ANOVA multiple comparisons GraphPad Prism 10.0 software. *P < 0.05, **P < 0.01, ***P < 0.001 and ****P < 0.0001.

[3] = test system: S. aureus wild type and fph transposon mutants; test: Bacterial growth inhibition assay, S. aureus; assay type: cell-based, Staphylococcus aureus; settings: 1–100 μM
Description: Bacteria were streaked from glycerol stocks onto agar plates and grown overnight at 37°C. A single colony was inoculated in either Tryptic Soy Broth (TSB; Sigma-Aldrich, St. Louis, MO; used for most species) or Bacto Brain Heart Infusion (BHI; Becton, Dickinson, and Company, Franklin Lakes, NJ; used for L. monocytogenes and S. pyogenes) and grown at 37°C shaking until mid-exponential phase (OD600 = 0.5), then diluted 1:10 in cation-adjusted Mueller Hinton Broth (MHB2, Millipore Sigma, Bedford, MA; used for most species) or BHI (for L. monocytogenes and S. pyogenes). 15 μl of this dilution was added to 135 μl of MHB2 or BHI in a flat-bottom clear 96-well plate for a starting inoculum of ~ 5 × 10^5 CFU/ml.
For bacterial growth inhibition assay, wild-type S. aureus and transposon mutants (fphB::Tn, fphE::Tn and fphH::Tn) were grown with compounds at final concentrations ranging from 1–100 μM and compared to growth in media with an equivalent percentage of DMSO. Each condition was plated as technical duplicates. The plate was incubated at 37°C with shaking every 15 minutes followed by measurement of OD600 for 14 hr. All growth curves were repeated at least twice and analyzed in GraphPad Prism 10.0 software. For bacterial resistance analysis, overnight culture of S. aureus Newman was diluted to an OD600 of 0.01 in MHB. This was followed by pretreatment with 20 μM N34 or equivalent DMSO volume as control. The pretreatment was allowed to proceed for 3 hr before initiating treatment with different concentrations of the test antibiotics (Table S5). The cultures were incubated overnight at 37°C, 5% CO2 before their optical density was read. The EC50 of the antibiotics against the bacteria in the presence or absence of N34 were determined by fitting the normalized data into a four-parameter logistic model in GraphPad Prism 10.0 software.

Escherichia coli = test: Bacterial growth inhibition assay, E. coli; assay type: cell-based

SMILES: OB(O)c1csc2ccccc12 [Z27, Benzo[b]thiophen-3-ylboronic acid]
- IC50 (recombinant FphE (rFphE)): 50 nM
- CC50 at 48 h [1]: > 200000 nM
- effect on biofilm formation in transposon mutants (in words) [2]: further reduced by the inhibitor Z27 only at the highest concentrations used (50 and 100 μM)
- effect on S. aureus growth (in words) [3]: reduced growth for only the fphE mutant
- growth defect (in words) (Escherichia coli): no significant growth defect
